These results are taken from patent US8710050B2, “Di and tri- substituted oxathiazine derivatives, method for the production, method for the production thereof, use thereof as medicine and drug containing said derivatives and use thereof” (Sanofi, priority 2011, dated 2014).

Sequence of human 11β-HSD1 microsome fraction (P28845 whole entry): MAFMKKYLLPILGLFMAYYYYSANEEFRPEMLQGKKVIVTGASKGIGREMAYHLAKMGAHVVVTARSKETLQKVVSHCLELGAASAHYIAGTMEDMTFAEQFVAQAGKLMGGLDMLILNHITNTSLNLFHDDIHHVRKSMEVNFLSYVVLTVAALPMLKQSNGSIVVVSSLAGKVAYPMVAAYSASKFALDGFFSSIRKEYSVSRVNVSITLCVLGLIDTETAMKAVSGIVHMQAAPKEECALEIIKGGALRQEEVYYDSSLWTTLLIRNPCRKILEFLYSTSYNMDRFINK

The target of this experiment is human 11β-HSD1 microsome fraction (Homo sapiens, UniProt P28845). As to the kind of experiment: Enzymatic 11beta-HSD1 test (SPA-based detection). The format is biochemical. The conditions noted are these: [1,2-3H]-cortisone substrate, 0.25 mM NADPH, 37° C., 1 hour; read-out: IC50 (nM), Biological activity in nanomolar. As to the method:
Enzymatic 11beta-HSD1 Test:
To measure the activity of the compounds, an SPA-based detection method (Solly et al. 2005) was employed. First of all, 20 μl of the human 11β-HSD1 microsome fraction (0.2 μg of protein), prepared in 50 mM HEPES, 0.1% BSA (w/v), were applied to a plate with 384 wells. The test compounds (0.09 μl) were applied to the assay plate in 100% DMSO. The reaction was started by addition of 20 μl of [1,2-^3H]-cortisone (0.1 μCi/[…]) in assay buffer comprising 25 mM HEPES, 100 mM KCl, 5 mM NaCl, 2 mM MgCl2 and 0.25 mM NADPH. The plate was agitated at 37° C. for 1 hour. At the same time, a stop solution comprising 20 mg/ml SPA-PVT beads, 1.6 mg/ml monoclonal cortisol antibody and 0.01 mM SSR110887 (inhibitor from the Biovitrium patent) in 50 mM HEPES, 1 M NaCl and 1 M KCl was stirred at room temperature. To stop the reaction, 25 μl of the stop solution were added to each well. The plate was agitated gently at room temperature for 1 further hour and then centrifuged at 500 gav for 1 min, in order that the SPA beads could settle out. The plate was then read in a Wallac-1450-Microbeta unit with a standard SPA program (counting time 1 min/well). The comparative compound was glycyrrhetinic acid.
Protein and radioactive substrate were dispensed with a Biomek FX unit (Beckman Coulter) for handling liquids. The test compounds were added with a Cybi-Well equipped with a 90 nl pin tool (CyBio).
Lit.: Solly S, Mundt S S, Zokian H J, Juy-Fang Ding G, Hermanowski-Vosatka A, Strulovici B and Zheng W. High-throughput screening of 11β-Hydroxysteroid dehydrogenase type 1 in scintillation proximity format. Assay Drug Dev Technol 2005; 3:377-384.
In general, IC50 refers to the concentration that gives 50% inhibition. Consider `CC1C(C)(C)OC(NC2CCCCC2)=NS1(=O)=O` (centres unmarked) [Example 1, Cyclohexyl-(5,6,6-trimethyl-4,4-dioxo-5,6-dihydro-4H-4lambda6-[1,4,3]oxathiazin-2-yl) amine], for which the IC50 stood at 139 nM.

Turning to `O=S1(=O)CC2(CCC2)OC(NC2CCCCC2)=N1` [Example 2, Cyclohexyl-(8,8-dioxo-5-oxa-8lambda6-thia-7-azaspiro[3.5]non-6-en-6-yl)amine], the IC50 was found to be 399 nM.

For the compound `O=S1(=O)CC2(CCCC2)OC(NC2CCCCC2)=N1` [Example 3, Cyclohexyl-(9,9-dioxo-6-oxa-9lambda6-thia-8-azaspiro[4.5]dec-7-en-7-yl)amine], the IC50 was 308 nM.

Regarding `O=S1(=O)CC2(CCCCC2)OC(NC2CCCCC2)=N1` [Example 4, Cyclohexyl-(4,4-dioxo-1-oxa-4lambda6-thia-3-azaspiro[5.5]undec-2-en-2-yl)amine], the IC50 is 300 nM.

On to `CC1(C)CS(=O)(=O)N=C(N[C@@H](CCO)c2ccccc2)O1` [Example 5, (S)-3-(6,6-Dlmethyl-4,4-dioxo-5,6-dihydro-4H-4lambda6-[1,4,3]oxathiazin-2-ylamino)-3 phenylpropan-1-ol], for which the IC50 worked out at 307 nM.

For the compound `O=S1(=O)CC2(CCC2)OC(N[C@@H](CCO)c2ccccc2)=N1` [Example 6, (S)-3-(8,8-Dioxo-5-oxa-8lambda6-thia-7-azaspiro[3.5]non-6-en-6-ylamino)-3-phenyl-propan-1-ol], the concentration for half-maximal inhibition (IC50) stood at 128 nM.

For the compound `O=S1(=O)CC2(CCCC2)OC(N[C@@H](CCO)c2ccccc2)=N1` [Example 7, (S)-3-(9,9-Dioxo-6-oxa-9lambda6-thia-8-aza-spiro[4.5]dec-7-en-7-ylamino)-3-phenyl-propan-1-ol], the IC50 came out at 113 nM.

In the case of `O=S1(=O)CC2(CCCCC2)OC(N[C@@H](CCO)c2ccccc2)=N1` [Example 8, (S)-3-(4,4-Dioxo-1-oxa-4lambda6-thia-3-aza-spiro[5.5]undec-2-en-2-ylamino)-3-phenyl-propan-1-ol], the IC50 came out at 66 nM.
